From ChEMBL document CHEMBL2434948, “Discovery, synthesis, and characterization of an orally bioavailable, brain penetrant inhibitor of mixed lineage kinase 3” (J Med Chem, 2013)
Active and inactive are the calls of the source. The calls are words filed in the database; no cut-off is given here.

How the values were obtained:
Brain = assay: Drug uptake in C57BL/6 mouse brain at 10 mg/kg, iv measured over 6 hrs; type: ADME, organism-based; set-up: dose 10 mg/kg, route intravenous; settings: in vivo
[1] = molecular target: Ribosomal protein S6 kinase alpha-6 (Homo sapiens) (UniProt Q9UK32); assay: Inhibition of human wild type RSK4 at 1 uM by qPCR analysis
[2] = molecular target: Mitogen-activated protein kinase kinase kinase kinase 4 (Homo sapiens) (UniProt O95819); assay: Binding affinity to human wild type MAP4K4 at 1 uM by qPCR analysis
[3] = molecular target: RAC-alpha serine/threonine-protein kinase (Homo sapiens) (UniProt P31749); assay: Inhibition of human wild type AKT1 at 1 uM by qPCR analysis
[4] = molecular target: Mitogen-activated protein kinase 12 (Homo sapiens) (UniProt P53778); assay: Inhibition of human wild type p38g at 1 uM by qPCR analysis
[5] = molecular target: Serine/threonine-protein kinase B-raf (Homo sapiens) (UniProt P15056); assay: Inhibition of human wild type BRAF at 1 uM by qPCR analysis
[6] = molecular target: Mitogen-activated protein kinase 13 (Homo sapiens) (UniProt O15264); assay: Inhibition of human wild type p38d at 1 uM by qPCR analysis
[7] = molecular target: RAC-beta serine/threonine-protein kinase (Homo sapiens) (UniProt P31751); assay: Inhibition of human wild type AKT2 at 1 uM by qPCR analysis
[8] = molecular target: RAC-gamma serine/threonine-protein kinase (Homo sapiens) (UniProt Q9Y243); assay: Inhibition of human wild type AKT3 at 1 uM by qPCR analysis
[9] = molecular target: Serine/threonine-protein kinase MARK2 (Homo sapiens) (UniProt Q7KZI7); assay: Inhibition of human wild type MARK2 at 1 uM by qPCR analysis relative to control
[10] = system: Leucine-rich repeat serine/threonine-protein kinase 2 (Homo sapiens), Q5S007 [G2019S]; assay: Inhibition of human LRRK2 G2019S mutant at 1 uM by qPCR analysis relative to control
[11] = molecular target: Inhibitor of nuclear factor kappa-B kinase subunit beta (Homo sapiens) (UniProt O14920); assay: Inhibition of human wild type IKKbeta at 1 uM by qPCR analysis relative to control
[12] = molecular target: NUAK family SNF1-like kinase 1 (Homo sapiens) (UniProt O60285); assay: Inhibition of human wild type ARK5 at 1 uM by qPCR analysis relative to control
[13] = molecular target: ALK tyrosine kinase receptor (Homo sapiens) (UniProt Q9UM73); assay: Inhibition of human wild type ALK at 1 uM by qPCR analysis relative to control
[14] = molecular target: Platelet-derived growth factor receptor beta (Homo sapiens) (UniProt P09619); assay: Inhibition of human wild type PDGFRB at 1 uM by qPCR analysis relative to control
[15] = molecular target: Dual specificity tyrosine-phosphorylation-regulated kinase 1B (Homo sapiens) (UniProt Q9Y463); assay: Inhibition of human wild type DYRK1B at 1 uM by qPCR analysis relative to control
[16] = molecular target: Dual specificity protein kinase CLK4 (Homo sapiens) (UniProt Q9HAZ1); assay: Inhibition of human wild type CLK4 at 1 uM by qPCR analysis relative to control
[17] = molecular target: Cyclin-dependent kinase 11B (Homo sapiens) (UniProt P21127); assay: Inhibition of human wild type CDK11 at 1 uM by qPCR analysis relative to control
[18] = molecular target: Mitogen-activated protein kinase kinase kinase 11 (Mus musculus, UniProt Q80XI6)
[19] = molecular target: T1, Receptor-type tyrosine-protein kinase FLT3 (Homo sapiens, UniProt P36888)
T1 sequence (P36888 whole entry): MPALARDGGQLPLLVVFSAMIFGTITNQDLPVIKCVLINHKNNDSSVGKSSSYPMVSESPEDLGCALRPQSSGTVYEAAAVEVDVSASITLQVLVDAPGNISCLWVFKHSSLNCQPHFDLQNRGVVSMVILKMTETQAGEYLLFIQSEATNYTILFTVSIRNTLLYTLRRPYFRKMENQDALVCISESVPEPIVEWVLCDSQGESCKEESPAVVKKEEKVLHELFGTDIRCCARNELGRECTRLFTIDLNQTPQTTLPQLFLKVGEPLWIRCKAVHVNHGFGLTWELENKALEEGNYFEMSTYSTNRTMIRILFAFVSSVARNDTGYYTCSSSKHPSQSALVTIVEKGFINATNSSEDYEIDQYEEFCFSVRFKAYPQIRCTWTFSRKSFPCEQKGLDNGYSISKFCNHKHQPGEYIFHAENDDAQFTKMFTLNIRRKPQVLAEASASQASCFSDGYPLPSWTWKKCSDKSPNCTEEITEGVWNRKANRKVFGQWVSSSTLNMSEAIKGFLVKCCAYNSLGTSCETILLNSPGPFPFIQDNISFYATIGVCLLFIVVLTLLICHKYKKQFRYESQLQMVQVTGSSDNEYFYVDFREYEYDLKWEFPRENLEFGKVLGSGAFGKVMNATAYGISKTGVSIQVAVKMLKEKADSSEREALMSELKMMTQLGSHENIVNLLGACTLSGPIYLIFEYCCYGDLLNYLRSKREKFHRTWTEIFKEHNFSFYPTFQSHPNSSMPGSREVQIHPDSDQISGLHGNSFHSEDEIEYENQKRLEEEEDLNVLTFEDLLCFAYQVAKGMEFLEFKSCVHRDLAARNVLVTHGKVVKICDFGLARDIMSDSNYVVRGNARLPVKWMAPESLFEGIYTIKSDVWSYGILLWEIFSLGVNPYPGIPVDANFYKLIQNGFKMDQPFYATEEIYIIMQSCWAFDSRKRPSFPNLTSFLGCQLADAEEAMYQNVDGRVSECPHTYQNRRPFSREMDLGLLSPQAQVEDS
Description: Inhibition of wild type human FLT3 by high throughput ATP-[33P] radiolabeled assay

[20] = molecular target: Tyrosine-protein kinase ABL1 (Homo sapiens, UniProt P00519)
Description: Inhibition of wild type human ABL1 by high throughput ATP-[33P] radiolabeled assay

[21] = molecular target: Tyrosine-protein kinase ZAP-70 (Homo sapiens, UniProt P43403)
Description: Inhibition of wild type human ZAP70 by high throughput ATP-[33P] radiolabeled assay

[22] = molecular target: Mitogen-activated protein kinase 14 (Homo sapiens, UniProt Q16539)
Description: Inhibition of wild type human P38a by high throughput ATP-[33P] radiolabeled assay

[23] = molecular target: Tyrosine-protein kinase Lck (Homo sapiens, UniProt P06239)
Description: Inhibition of wild type human LCK by high throughput ATP-[33P] radiolabeled assay

[24] = molecular target: Vascular endothelial growth factor receptor 1 (Homo sapiens, UniProt P17948)
Description: Inhibition of wild type human FLT1 by high throughput ATP-[33P] radiolabeled assay

Cytochrome P450 2C9 = Cytochrome P450 2C9 (Homo sapiens, UniProt P11712)
Description: Inhibition of CYP2C9 in human liver microsomes assessed as inhibition of midazolam metabolism by HPLC/MS analysis

[25] = molecular target: Mitogen-activated protein kinase kinase kinase 11 (Homo sapiens, UniProt Q16584); settings: 300 nM
in vivo = settings: C57BL/6, mouse, po, 10 mg/kg
[26] = molecular target: T1, Receptor-type tyrosine-protein kinase FLT3; assay: cell-based
Description: Inhibition of FLT3-L-stimulated wild type full length human FLT3 autophosphorylation expressed in MEF preincubated for 90 mins followed by FLT3-L stimulation measured after 5 mins by ELISA

RAC-gamma serine/threonine-protein kinase (Homo sapiens), sequence (Q9Y243 whole entry): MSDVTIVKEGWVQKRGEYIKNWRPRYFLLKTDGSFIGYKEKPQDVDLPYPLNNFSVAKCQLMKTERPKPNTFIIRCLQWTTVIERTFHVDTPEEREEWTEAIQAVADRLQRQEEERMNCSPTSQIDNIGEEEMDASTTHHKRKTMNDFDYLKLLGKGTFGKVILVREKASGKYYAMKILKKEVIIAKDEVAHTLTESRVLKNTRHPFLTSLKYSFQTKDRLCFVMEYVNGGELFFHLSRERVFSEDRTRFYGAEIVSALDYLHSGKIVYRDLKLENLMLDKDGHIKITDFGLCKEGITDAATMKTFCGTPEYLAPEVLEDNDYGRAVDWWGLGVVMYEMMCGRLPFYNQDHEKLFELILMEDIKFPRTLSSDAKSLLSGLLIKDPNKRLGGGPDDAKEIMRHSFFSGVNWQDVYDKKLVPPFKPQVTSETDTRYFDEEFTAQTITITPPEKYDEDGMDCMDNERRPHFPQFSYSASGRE
Vascular endothelial growth factor receptor 1, sequence (P17948 whole entry): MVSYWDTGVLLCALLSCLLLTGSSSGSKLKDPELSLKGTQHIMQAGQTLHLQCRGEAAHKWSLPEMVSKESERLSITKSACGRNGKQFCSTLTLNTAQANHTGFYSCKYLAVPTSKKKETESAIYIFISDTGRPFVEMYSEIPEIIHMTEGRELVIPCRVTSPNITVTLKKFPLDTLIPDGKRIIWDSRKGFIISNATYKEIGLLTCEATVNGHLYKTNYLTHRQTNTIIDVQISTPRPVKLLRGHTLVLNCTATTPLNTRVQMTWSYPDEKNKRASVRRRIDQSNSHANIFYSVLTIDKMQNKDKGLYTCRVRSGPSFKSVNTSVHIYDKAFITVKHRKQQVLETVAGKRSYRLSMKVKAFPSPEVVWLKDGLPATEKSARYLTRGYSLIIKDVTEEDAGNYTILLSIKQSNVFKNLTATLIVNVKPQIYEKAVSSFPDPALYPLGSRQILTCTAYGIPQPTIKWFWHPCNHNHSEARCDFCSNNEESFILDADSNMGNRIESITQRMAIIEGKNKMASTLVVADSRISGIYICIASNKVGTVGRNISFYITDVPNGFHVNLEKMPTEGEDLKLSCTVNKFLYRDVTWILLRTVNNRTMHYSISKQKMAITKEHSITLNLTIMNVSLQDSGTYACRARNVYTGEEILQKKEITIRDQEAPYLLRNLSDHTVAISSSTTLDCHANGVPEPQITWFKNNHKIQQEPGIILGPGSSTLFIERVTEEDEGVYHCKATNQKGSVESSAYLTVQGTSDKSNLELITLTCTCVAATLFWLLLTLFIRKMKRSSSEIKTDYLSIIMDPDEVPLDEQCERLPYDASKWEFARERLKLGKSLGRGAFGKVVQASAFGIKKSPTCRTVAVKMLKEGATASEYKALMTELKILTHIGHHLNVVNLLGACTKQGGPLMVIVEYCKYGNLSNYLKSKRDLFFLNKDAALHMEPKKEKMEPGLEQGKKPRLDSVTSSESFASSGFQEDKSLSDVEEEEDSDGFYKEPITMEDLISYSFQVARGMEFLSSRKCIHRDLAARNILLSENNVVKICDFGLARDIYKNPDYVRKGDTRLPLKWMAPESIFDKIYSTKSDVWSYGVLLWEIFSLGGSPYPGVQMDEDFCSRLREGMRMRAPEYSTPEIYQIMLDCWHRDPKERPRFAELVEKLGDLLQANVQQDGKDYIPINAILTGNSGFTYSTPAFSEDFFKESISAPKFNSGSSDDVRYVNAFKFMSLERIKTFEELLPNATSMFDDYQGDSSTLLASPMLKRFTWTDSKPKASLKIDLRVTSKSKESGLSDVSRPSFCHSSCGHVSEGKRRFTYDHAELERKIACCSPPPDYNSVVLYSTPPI
Mitogen-activated protein kinase 12 (Homo sapiens), sequence (P53778 whole entry): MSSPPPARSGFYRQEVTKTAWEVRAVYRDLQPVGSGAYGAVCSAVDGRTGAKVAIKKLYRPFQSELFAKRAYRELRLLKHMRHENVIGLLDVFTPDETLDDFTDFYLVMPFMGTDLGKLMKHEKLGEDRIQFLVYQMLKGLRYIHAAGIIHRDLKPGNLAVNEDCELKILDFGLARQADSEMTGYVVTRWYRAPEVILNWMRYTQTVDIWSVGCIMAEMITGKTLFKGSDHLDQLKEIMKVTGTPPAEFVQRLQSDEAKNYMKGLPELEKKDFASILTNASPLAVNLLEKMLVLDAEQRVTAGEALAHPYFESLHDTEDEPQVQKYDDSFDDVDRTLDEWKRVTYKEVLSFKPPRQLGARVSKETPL
Tyrosine-protein kinase Lck, sequence (P06239 whole entry): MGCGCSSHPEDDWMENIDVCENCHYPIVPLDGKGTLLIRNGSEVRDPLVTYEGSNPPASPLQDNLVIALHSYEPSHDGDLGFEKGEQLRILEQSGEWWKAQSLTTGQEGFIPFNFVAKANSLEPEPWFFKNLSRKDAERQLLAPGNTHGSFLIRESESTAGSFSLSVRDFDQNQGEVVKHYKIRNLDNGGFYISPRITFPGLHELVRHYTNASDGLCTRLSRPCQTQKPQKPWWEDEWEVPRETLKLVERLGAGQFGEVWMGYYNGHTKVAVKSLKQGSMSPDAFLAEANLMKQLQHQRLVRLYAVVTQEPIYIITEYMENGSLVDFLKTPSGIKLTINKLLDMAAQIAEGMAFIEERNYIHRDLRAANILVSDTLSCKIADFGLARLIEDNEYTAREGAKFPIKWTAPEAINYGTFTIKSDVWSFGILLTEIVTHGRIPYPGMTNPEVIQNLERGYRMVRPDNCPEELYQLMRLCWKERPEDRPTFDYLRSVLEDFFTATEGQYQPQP
Cyclin-dependent kinase 11B (Homo sapiens), sequence (P21127 whole entry): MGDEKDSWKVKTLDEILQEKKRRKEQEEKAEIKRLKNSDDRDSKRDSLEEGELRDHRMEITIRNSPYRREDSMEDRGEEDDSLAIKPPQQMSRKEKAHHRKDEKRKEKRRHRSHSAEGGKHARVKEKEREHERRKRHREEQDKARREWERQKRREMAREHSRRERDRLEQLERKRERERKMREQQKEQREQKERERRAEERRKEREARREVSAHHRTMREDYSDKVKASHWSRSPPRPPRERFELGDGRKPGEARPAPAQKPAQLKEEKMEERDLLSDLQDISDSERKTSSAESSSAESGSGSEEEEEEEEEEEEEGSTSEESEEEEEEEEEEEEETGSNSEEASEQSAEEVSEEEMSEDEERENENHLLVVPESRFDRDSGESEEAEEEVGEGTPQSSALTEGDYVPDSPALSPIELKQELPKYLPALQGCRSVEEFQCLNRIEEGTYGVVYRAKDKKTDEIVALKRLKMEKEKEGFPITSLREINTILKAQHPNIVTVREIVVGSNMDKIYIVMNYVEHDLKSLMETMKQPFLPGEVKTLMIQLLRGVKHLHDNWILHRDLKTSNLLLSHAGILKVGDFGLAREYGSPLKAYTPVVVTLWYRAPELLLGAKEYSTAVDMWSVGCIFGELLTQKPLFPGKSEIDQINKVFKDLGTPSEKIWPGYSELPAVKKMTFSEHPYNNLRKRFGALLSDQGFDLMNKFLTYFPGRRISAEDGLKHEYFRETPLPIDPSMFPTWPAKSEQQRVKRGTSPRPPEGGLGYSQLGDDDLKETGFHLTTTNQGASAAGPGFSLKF
Tyrosine-protein kinase ZAP-70, sequence (P43403 whole entry): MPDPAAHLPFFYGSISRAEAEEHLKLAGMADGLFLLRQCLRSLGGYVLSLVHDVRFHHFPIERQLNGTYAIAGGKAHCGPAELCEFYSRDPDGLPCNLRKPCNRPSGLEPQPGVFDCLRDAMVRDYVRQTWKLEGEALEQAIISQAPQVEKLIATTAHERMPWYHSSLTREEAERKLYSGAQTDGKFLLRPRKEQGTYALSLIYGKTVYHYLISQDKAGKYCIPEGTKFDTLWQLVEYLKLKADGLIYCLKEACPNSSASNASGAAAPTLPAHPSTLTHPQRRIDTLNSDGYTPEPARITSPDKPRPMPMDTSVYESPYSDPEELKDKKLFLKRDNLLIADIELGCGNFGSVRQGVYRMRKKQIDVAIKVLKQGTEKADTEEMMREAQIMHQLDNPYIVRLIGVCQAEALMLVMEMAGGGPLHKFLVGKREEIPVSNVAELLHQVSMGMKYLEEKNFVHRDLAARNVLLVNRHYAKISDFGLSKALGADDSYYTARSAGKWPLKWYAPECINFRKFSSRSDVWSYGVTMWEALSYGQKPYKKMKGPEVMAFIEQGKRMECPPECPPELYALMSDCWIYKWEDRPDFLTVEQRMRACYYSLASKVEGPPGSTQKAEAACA
Inhibitor of nuclear factor kappa-B kinase subunit beta (Homo sapiens), sequence (O14920 whole entry): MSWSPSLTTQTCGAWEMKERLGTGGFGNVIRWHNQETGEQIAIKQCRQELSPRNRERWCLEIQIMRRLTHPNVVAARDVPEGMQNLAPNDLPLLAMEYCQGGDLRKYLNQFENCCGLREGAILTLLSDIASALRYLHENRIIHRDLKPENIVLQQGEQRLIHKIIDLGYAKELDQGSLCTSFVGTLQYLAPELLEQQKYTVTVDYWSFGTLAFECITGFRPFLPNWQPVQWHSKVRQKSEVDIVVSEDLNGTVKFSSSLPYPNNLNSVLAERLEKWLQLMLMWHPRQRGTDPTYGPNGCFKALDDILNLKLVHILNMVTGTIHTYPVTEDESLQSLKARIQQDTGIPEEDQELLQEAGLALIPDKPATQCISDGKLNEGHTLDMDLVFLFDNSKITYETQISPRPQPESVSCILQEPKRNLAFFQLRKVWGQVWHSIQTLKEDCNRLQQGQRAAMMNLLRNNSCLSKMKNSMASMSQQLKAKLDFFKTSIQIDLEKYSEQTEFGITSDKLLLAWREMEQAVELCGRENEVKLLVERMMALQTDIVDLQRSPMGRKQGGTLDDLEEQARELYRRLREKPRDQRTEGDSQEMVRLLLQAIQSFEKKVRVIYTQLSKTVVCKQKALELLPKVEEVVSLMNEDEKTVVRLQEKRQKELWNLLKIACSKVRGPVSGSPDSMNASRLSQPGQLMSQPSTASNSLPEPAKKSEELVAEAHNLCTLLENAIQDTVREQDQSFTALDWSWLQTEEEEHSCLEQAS

With `CN1CCN(Cc2ccc(-c3cnc4[nH]cc(-c5ccc6[nH]ccc6c5)c4c3)cc2)CC1` the Drug uptake (Brain) was “Active”, the inhibition [1] was “inactive” and the inhibition [2] was “Active”. For the same compound, the inhibition [3] was “inactive”, the inhibition [4] was “inactive” and the inhibition [5] was “inactive”. For the same compound, the inhibition [6] was “inactive”, the inhibition [7] was “inactive” and the inhibition [8] was “inactive”. For the same compound, the inhibition [9] was 49%, the inhibition [10] was 96% and the inhibition [11] was over 90%. For the same compound, the inhibition [12] was over 90%, the inhibition [13] was over 90% and the inhibition [14] was over 90%. It also gave an inhibition [15] of over 90%, an inhibition [16] of over 90% and an inhibition [17] of over 90%. For the same compound, the IC50 [18] was 460 nM, the IC50 [19] was 4 nM and the IC50 [20] was 6.8 nM. The IC50 [21] was 5050 nM, the IC50 [22] was 12000 nM and the IC50 [23] was 333 nM. It also gave an IC50 [24] of 39 nM, an IC50 (Cytochrome P450 2C9) of over 30000 nM and an inhibition [25] of over 50%. It also gave a Tmax (in vivo) of 4 h and an IC50 [26] of 560 nM.
